Reference: US20110237560A1, “MODULATING AND/OR DETECTING ACTIVATION INDUCED DEAMINASE AND METHODS OF USE THEREOF” (priority 2010, published 2011)
Residues, ends and D or L forms follow the SMILES beside them. *: point of attachment. Cbz = O=C(OCc1ccccc1)*

What was measured:
endogenous AID = assay: Endogenous AID levels by western blot in B-cell lymphoma lines (Ramos, CH12-F3, DT40); type: cell-based, human, mouse and chicken; conditions: Ramos and DT40; 2 microM GA and 10 microM MG132
Experimental: (§1) One of two experiments is shown. […] (D) AID stabilization by Hsp90 requires protein-protein interaction. […] Dead cells were excluded by propidium iodide staining. […] One of five independent experiments is shown. […] (D) and (F) are representative of three different experiments.
(A) AID degradation following Hsp90 inhibition is distinct from nuclear AID degradation. Ramos cells stably expressing AID-GFP were treated in triplicate with DMSO (Ctrl), 2 microM GA and/or 50 ng/mL leptomycin B (LMB) and the GFP signal was monitored over time by flow cytometry. The MFI normalized to t0=100% is plotted for each treatment. Dead cells were excluded by propidium iodide staining. […] Ramos cells stably expressing AID-GFP pretreated with 100 ng/mL cycloheximide (CHX), a known protein synthesis inhibitor, for 1 h were treated and analyzed as in (A). […] The GFP signal was monitored and plotted as above. […] Immunoprecipitates were analyzed by western blot using anti-GFP and anti-ubiquitin antibodies. […] In the lower panel, the relative amount of polyubiquitinated AID was quantified by densitometry using ImageQuant™ and the relative value of three independent experiments for each Ramos, HeLa and primary mouse B cells was plotted+SD.
In cell lines stably expressing GFP-tagged AID or AID mutants, the GFP fluorescence signal was measured by flow cytometry at various time points after the indicated treatments. […]

AID-GFP = assay: Monitoring of AID stability: GFP signal (MFI) by flow cytometry in Ramos transfectants; type: cell-based, human; conditions: for degradation of AID-GFP induced by Hsp90 inhibition, with proteasome inhibitor: stable transfectants of Ramos and DT40 cells, 10 microM MG132
Experimental: as §1
(A) AID degradation following Hsp90 inhibition is distinct from nuclear AID degradation. Ramos cells stably expressing AID-GFP were treated in triplicate with DMSO (Ctrl), 2 microM GA and/or 50 ng/mL leptomycin B (LMB) and the GFP signal was monitored over time by flow cytometry. The MFI normalized to t0=100% is plotted for each treatment. Dead cells were excluded by propidium iodide staining. One out of five identical experiments is shown. […] Ramos cells stably expressing AID-GFP pretreated with 100 ng/mL cycloheximide (CHX), a known protein synthesis inhibitor, for 1 h were treated and analyzed as in (A). One out of four identical experiments is shown. (C) Cytoplasmic destabilization of AID following Hsp90 inhibition. Analogous experiments to those in A and B were performed on Ramos cells stably expressing GFP-AID, which was previously shown to be unable to enter the nucleus (probably because the N-terminal fusion of GFP to AID masks the NLS)^28. One out of three identical experiments is shown. (D) AID degradation following Hsp90 inhibition requires the proteasome. Ramos cells stably expressing AID-GFP were treated with DMSO (Ctrl), 2 microM 17-MG and 10 microM MG132, a known specific proteasome inhibitor, as indicated. The GFP signal was monitored and plotted as above. One out of five experiments is shown. (E) Lower AID steady-state levels induced by Hsp90 inhibition can be blocked by proteasome inhibition in B cell lymphoma lines. Human and chicken B-cell lines (Ramos and DT40 respectively) were treated with 2 microM GA and 10 microM MG132 and subsequently harvested as indicated. The cells were lyzed, fractionated on SDS-PAGE and blotted. Blots were probed with anti-AID and anti-actin. One out of two experiments is shown for each cell line. (F) Hsp90 inhibition enhances AID polyubiquitination. […] Immunoprecipitates were analyzed by western blot using anti-GFP and anti-ubiquitin antibodies. […] In the lower panel, the relative amount of polyubiquitinated AID was quantified by densitometry using ImageQuant™ and the relative value of three independent experiments for each Ramos, HeLa and primary mouse B cells was plotted+SD. […]
(A) DT40 cells and (B) Hela aid−/− cells stably expressing AID-GFP were treated with the indicated combinations of DMSO (Ctrl), 2 microM GA, 50 ng/mL leptomycin B (LMB), a nuclear export inhibitor and/or 10 microM MG132, a proteasome inhibitor. The GFP signal was monitored by flow cytometry and the MFI normalized to the signal at t0 for each treatment. […]

Hsp90 = conditions: cited from earlier work
[1] = tested on: various cancer cell lines; conditions: cited from earlier work
AID mRNA = conditions: breast and ovarian tissue; cited from earlier work
DT40 cells = assay: DT40 cell growth under chronic Hsp90 inhibition; type: cell-based, chicken; conditions: chronic low doses
Experimental: The median obtained for populations treated in each condition is indicated. […] Mean+SD values for the seven populations in each condition are plotted (middle panel). […] An identical experiment to (A) was performed except that the less toxic 17-AAG was used to inhibit Hsp90. […] The effect of the two 17-AAG concentrations used on DT40 growth was monitored by calculating the total number of cells in populations originating from 10^5 cells (left panel). The data plotted is the mean+SD of triplicate cultures for each condition. […] The quantitation of AID levels (middle panel) and cell growth curves (right panel) were done as in (B).

IgVlambda region = assay: Somatic hypermutation in DT40 cells by sequencing of IgVlambda; conditions: 0.1 microM
Experimental: DT40 sIgM− cells were purified by FACS sorting and grown for about a week in 24-well plates until confluent before addition of Hsp90 inhibitors. This method was favored over using single cell clones because of the effect of Hsp90 inhibition on cell growth. […] Cell populations were sorted and grown as above and the sIgM phenotype analyzed by flow cytometry. The mutation load and pattern was determined by sequencing PCR-amplified Vlambda. AID levels in the populations were quantified by western blot after expansion.
This region was PCR-amplified from control and 17-MG-treated (0.1 microM) cell populations after 4 weeks of growth, the PCR product cloned and 10-11 clones for each population were sequenced.

CC(C)C[C@@H](C=O)NC(=O)[C@H](CC(C)C)NC(=O)[C@H](CC(C)C)NC(=O)OCc1ccccc1 [MG132] (Cbz-Leu-Leu-Leu-aldehyde)
degradation of endogenous AID induced by Hsp90 inhibition, with proteasome inhibitor (endogenous AID): prevented the degradation of AID
degradation of AID-GFP induced by Hsp90 inhibition, with proteasome inhibitor (AID-GFP): prevented the degradation of AID

O=C1OCC/C=C/CC/C=C/C(=N/OCC(=O)N2CCCCC2)Cc2c(Cl)c(O)cc(O)c21 [NXD30001]
Hsp90 binding affinity compared to 17-MG and 17-DMAG (Hsp90): enhanced
potency in inhibiting cell growth in vitro compared to 17-MG and 17-DMAG [1]: enhanced

C[C@@H]1C[C@@H]([C@H](O)CC2CC(=O)NC(=O)C2)C(=O)[C@@H](C)C1 [CHX, cycloheximide]
decay of AID-GFP after protein synthesis inhibition (AID-GFP; Ramos, CHX alone): expected decay

estrogen
increase in AID mRNA production (AID mRNA): > 20 fold

C=CCNC1=C2C[C@@H](C)C[C@H](OC)[C@H](O)[C@@H](C)/C=C(\C)[C@H](OC(N)=O)[C@@H](OC)/C=C\C=C(/C)C(=O)NC(=CC1=O)C2=O [17-AAG, 17-(Allylamino)-17-demethoxygeldanamycin]
cell growth (DT40 cells): minimal impact on cell growth
decrease of mutation frequency versus controls (IgVlambda region; 4 weeks): ~5 fold
mutation frequency of the IgVlambda region (IgVlambda region; 4 weeks of growth, 10-11 clones per population): 1.11×10^−3 mutations/base pair

CCC(=C/[C@H](C)C/C=C/C(C)=C/[C@@H](C)C(=O)[C@@H](C)[C@H](O)[C@@H](C)C/C(C)=C/C(=O)O)/C=C/[C@@H]1OC(=O)C=C[C@@H]1C [LMB, leptomycin B]
stability of GFP-AID (unable to enter the nucleus) (AID-GFP; Ramos expressing GFP-AID): not destabilized

CC(=O)N[C@@H](CSC(=O)[C@]1([C@@H](O)C(C)C)NC(=O)[C@H](C)[C@@H]1O)C(=O)O [lactacystin]
degradation of AID-GFP induced by Hsp90 inhibition, with proteasome inhibitor (AID-GFP): Identical results

COC1=C2C[C@@H](C)C[C@H](OC)[C@H](O)[C@@H](C)/C=C(\C)[C@H](OC(N)=O)[C@@H](OC)/C=C\C=C(/C)C(=O)NC(=CC1=O)C2=O [GA, geldanamycin]
cell growth (DT40 cells): delayed cell growth
